Calls of active or inactive are those of the source. No cut-off for these calls is given here.
Key:
Format in all cases: functional
HeLa [1] = test: Growth inhibition of human HeLa cells after 48 hrs by sulforhodamine B assay
WiDr [2] = test: Growth inhibition of human WiDr cells after 48 hrs by sulforhodamine B assay
SW1573 [3] = test: Growth inhibition of human SW1573 cells after 48 hrs by sulforhodamine B assay; conditions: SW1573, 48 h
HBL-100 = test: Growth inhibition of human HBL100 cells after 48 hrs by sulforhodamine B assay; conditions: HBL-100, 48 h
T47D [4] = test: Growth inhibition of human T47D cells after 48 hrs by sulforhodamine B assay
A2780 = test: Growth inhibition of human A2780 cells after 48 hrs by sulforhodamine B assay; conditions: A2780, 48 h
T47D [5] = test: Cell cycle arrest in human T47D cells assessed as minor accumulation at G2/M phase at 5 to 20 uM after 24 hrs by propidium iodide staining-based FACS analysis
SW1573 [6] = test: Cell cycle arrest in human SW1573 cells assessed as minor accumulation at S phase at 5 to 20 uM after 24 hrs by propidium iodide staining-based FACS analysis
WiDr [7] = test: Cell cycle arrest in human WiDr cells assessed as minor accumulation at S phase at 5 to 20 uM after 24 hrs by propidium iodide staining-based FACS analysis
HeLa [8] = test: Cell cycle arrest in human HeLa cells assessed as minor accumulation at G2/M phase at 5 to 20 uM after 24 hrs by propidium iodide staining-based FACS analysis
WiDr [9] = test: Cell cycle arrest in human WiDr cells assessed as minor accumulation at G2/M phase at 5 to 20 uM after 24 hrs by propidium iodide staining-based FACS analysis
T47D [10] = test: Cell cycle arrest in human T47D cells assessed as minor accumulation at S phase at 5 to 20 uM after 24 hrs by propidium iodide staining-based FACS analysis
HeLa [11] = test: Cell cycle arrest in human HeLa cells assessed as minor accumulation at S phase at 5 to 20 uM after 24 hrs by propidium iodide staining-based FACS analysis
SW1573 [12] = test: Cell cycle arrest in human SW1573 cells assessed as minor accumulation at G2/M phase at 5 to 20 uM after 24 hrs by propidium iodide staining-based FACS analysis
HeLa [13] = test: Cell cycle arrest in human HeLa cells assessed as accumulation at G2/M phase at 3 uM after 24 hrs by propidium iodide staining-based FACS analysis
SW1573 [14] = test: Cell cycle arrest in human SW1573 cells assessed as accumulation at G2/M phase at 3 uM after 24 hrs by propidium iodide staining-based FACS analysis
WiDr [15] = test: Cell cycle arrest in human WiDr cells assessed as accumulation at G2/M phase at 6 uM after 24 hrs by propidium iodide staining-based FACS analysis
HeLa [16] = test: Cell cycle arrest in human HeLa cells assessed as accumulation at G2/M phase at 6 uM after 24 hrs by propidium iodide staining-based FACS analysis
SW1573 [17] = test: Cell cycle arrest in human SW1573 cells assessed as decrease in accumulation at S phase at 3 uM after 24 hrs by propidium iodide staining-based FACS analysis
WiDr [18] = test: Cell cycle arrest in human WiDr cells assessed as decrease in accumulation at S phase at 6 uM after 24 hrs by propidium iodide staining-based FACS analysis
WiDr [19] = test: Cell cycle arrest in human WiDr cells assessed as increase in accumulation at sub G0 phase at 3 to 6 uM treated for 24 hrs measured after 24 hrs of drug washout by propidium iodide staining-based FACS analysis
SW1573 [20] = test: Cell cycle arrest in human SW1573 cells assessed as accumulation at G2/M phase at 6 uM after 24 hrs by propidium iodide staining-based FACS analysis
T47D [21] = test: Cell cycle arrest in human T47D cells assessed as accumulation at G2/M phase at 6 uM after 24 hrs by propidium iodide staining-based FACS analysis
HeLa [22] = test: Cell cycle arrest in human HeLa cells assessed as decrease in accumulation at G0/G1 phase at 6 uM after 24 hrs by propidium iodide staining-based FACS analysis
HeLa [23] = test: Cell cycle arrest in human HeLa cells assessed as decrease in accumulation at S phase at 3 uM after 24 hrs by propidium iodide staining-based FACS analysis
T47D [24] = test: Cell cycle arrest in human T47D cells assessed as decrease in accumulation at S phase at 6 uM after 24 hrs by propidium iodide staining-based FACS analysis
SW1573 [25] = test: Cell cycle arrest in human SW1573 cells assessed as accumulation at S phase at 6 uM after 24 hrs by propidium iodide staining-based FACS analysis
HeLa [26] = test: Cell cycle arrest in human HeLa cells assessed as accumulation at S phase at 6 uM after 24 hrs by propidium iodide staining-based FACS analysis
T47D [27] = test: Cell cycle arrest in human T47D cells assessed as increase in accumulation at sub G0 phase at 3 to 6 uM treated for 24 hrs measured after 24 hrs of drug washout by propidium iodide staining-based FACS analysis
SW1573 [28] = test: Cell cycle arrest in human SW1573 cells assessed as decrease in accumulation at G0/G1 phase at 6 uM after 24 hrs by propidium iodide staining-based FACS analysis

SMILES | pGI50 (HeLa [1]) | GI50 (HeLa [1]; read-out: GI50) [µM] | pGI50 (WiDr [2]) | GI50 (WiDr [2]; read-out: GI50) [µM] | pGI50 (SW1573 [3]) | GI50 (SW1573 [3]; read-out: GI50) [µM] | pGI50 (HBL-100) | GI50 (HBL-100; read-out: GI50) [µM] | pGI50 (T47D [4]) | GI50 (T47D [4]; read-out: GI50) [µM] | pGI50 (A2780) | GI50 (A2780; read-out: GI50) [µM] | GI50 (T47D [4]; read-out: pGI50 (converted)) [µM] | other results
C=C(C(=O)O)[C@@H]1CC[C@@]2(C)CCC[C@@](C)(O)[C@@H]2C1 [ILICIC ACID] | 4 | > 100 | 4 | > 100 | 4 | > 100 | 4 | > 100 | 4 | > 100 | 4 | > 100 | – | –
C=C(CO)[C@@H]1CC[C@@]2(C)CCC[C@@](C)(O)[C@@H]2C1 [ILICIC ALCOHOL] | 4 | > 100 | 4 | > 100 | 4 | > 100 | 4 | > 100 | 4 | > 100 | 4 | > 100 | – | –
C=C(C=O)[C@@H]1CC[C@@]2(C)CCC[C@@](C)(O)[C@@H]2C1 [ILICIC ALDEHYDE] | – | 16 | – | 12 | 5.72 | 2 | – | 2.8 | – | 6.5 | – | 1.8 | 5.19 | GI50 (HeLa [1]; read-out: pGI50 (converted)): 4.8 µM; GI50 (WiDr [2]; read-out: pGI50 (converted)): 4.92 µM; Activity (T47D [5]): Active; Activity (SW1573 [6]): Active; Activity (WiDr [7]): Active; Activity (HeLa [8]): Active; GI50 (HBL-100; read-out: pGI50 (converted)): 5.56 µM; Activity (WiDr [9]): Active; GI50 (A2780; read-out: pGI50 (converted)): 5.58 µM; Activity (T47D [10]): Active; Activity (HeLa [11]): Active; Activity (SW1573 [12]): Active
C=C(C(=O)OC)[C@@H]1CCC2=CC(=O)C[C@H](C)[C@@]2(C)C1 [TESSARIC ACID METHYL ESTER] | 5.35 | 4.5 | 5.74 | 2 | – | 3.8 | 5.63 | 2.4 | – | 2.4 | 5.75 | 1.9 | 5.62 | Activity (HeLa [13]): Active; Activity (SW1573 [14]): Active; GI50 (SW1573 [3]; read-out: pGI50 (converted)): 5.44 µM; Activity (WiDr [15]): Active; Activity (HeLa [16]): Active; Activity (SW1573 [17]): Active; Activity (WiDr [18]): Active; Activity (WiDr [19]): Active; Activity (SW1573 [20]): Active; Activity (T47D [21]): Active; Activity (HeLa [22]): Active; Activity (HeLa [23]): Active; Activity (T47D [24]): Active; Activity (SW1573 [25]): Active; Activity (HeLa [26]): Active; Activity (T47D [27]): Active; Activity (SW1573 [28]): Active
C=C(C(=O)O)[C@@H]1CCC2=CC(=O)C[C@H](C)[C@@]2(C)C1 [TESSARIC ACID] | 4 | > 100 | 4 | > 100 | 4 | > 100 | 4 | > 100 | 4 | > 100 | 4 | > 100 | – | –
C=C(C(=O)OC)[C@@H]1CC[C@@]2(C)CCC[C@@](C)(O)[C@@H]2C1 [VACHANIC ACID METHYLESTER] | 4 | > 100 | 4 | > 100 | 4 | > 100 | 4.13 | 74 | 4 | > 100 | 4 | > 100 | – | –
